Legend:
D425-Med cells = assay: In vivo combinatorial treatment with Vincristine, orthotopic medulloblastoma model; design: species or system nude mice
Experimental: We then measured the combinatorial treatment with (S)-(1-(4-((4-methoxybenzyl)amino)-1,3,5-triazin-2-yl)piperidin-3-yl)methanol HCl salt compound and Vincristine in vivo. To this end, D425-Med cells (1 ×10^5 cells) were implanted into the fourth ventricle of nude mice (n=18). After 7 days from tumour implantation (i.e., once the tumours were established) the mice (grouped according to their bioluminescence values) were injected intraperitoneally with 0.3 mg/kg/day Vincristine alone or in combination with 6 mg/kg/day (S)-(1-(4-((4-methoxybenzyl)amino)-1,3,5-triazin-2-yl)piperidin-3-yl)methanol HCl salt compound for 18 days (Figures 9E).

Acute toxicity in vivo = assay: Acute toxicity in vivo; design: species or system FVB mice; conditions: for hepatotoxicity or nephrotoxicity (glutamate-pyruvate transaminase 1, creatinine blood levels, blood urea nitrogen): HCl salt
Experimental: The toxicity of LEO-AA7.5(S)T was determined with 4-week-old FVB mice grouped according to body weight. Escalating doses of LEO-AA7.5(S)T (60mg or 120mg/kg/day) or vehicle (water) were administered intraperitoneally, daily for 12 days. At sacrifice, the blood and organs were collected and evaluated. Haematological and biochemical markers of hepatic and renal functions were evaluated. Data are expressed as means from four mice within each treatment group.

[1] = system: inflammatory cytokines targeted by IMIDs drugs; assay: qPCR of inflammatory cytokines in MATH1-Prune1/TP53-/- cells; assay type: cell-based, murine; conditions: 10 µM, 24 hours
Experimental: RNA samples were extracted using TRIzol RNA Isolation Reagent (15596026, Invitrogen), according to the manufacturer instructions. Reverse transcription was performed with 5× All-In-One RT MasterMix (g592; ABM), according to the manufacturer instructions. The reverse transcription products (cDNA) were amplified by qRT-PCR using an RT-PCR system (7900; Applied Biosystems, Foster City, CA, USA). The cDNA preparation was through the cycling method, by incubating the complete reaction mix as follows: cDNA reactions: (37 °C for 10 min and 60 °C for 15 min); Heat-inactivation: 95 °C for 3 min; Hold stage: 4 °C. The targets were detected with the SYBR green approach, using BrightGreen BlasTaq 2× PCR MasterMix (G895; ABM). Human ACTB was used as the housekeeping gene to normalize the quantification cycle (Cq) values of the other genes. These runs were performed on a PCR machine (Quantstudio5, Lifetechnologies) with the following thermal protocol: Hold stage: 50 °C for 2 min; Denaturation Step: 95 °C for 10 min; Denaturation and annealing (×45 cycles): 95 °C for 15 s and 60 °C for 60 s; Melt curve stage: 95 °C for 15 s, 60 °C for 1 min, and 95 °C for 15 s. Relative expression of the target genes was determined using the 2^-ΔΔCq method, as the fold increase compared with the controls. The data are presented as means ±SD of the 2^-ΔΔCq values (normalized to human ACTB) of three replicates.

MATH1-Prune1/ TP53-/- = assay: Orthotopic implantation of MATH1-Prune1/TP53-/- cells in immunocompetent syngeneic mice, survival analysis; assay type: in vivo, FVB WT mice
Experimental: MATH1-Prune1/ TP53-/- were implanted into the right cerebellar hemisphere of female (n.24) immunocompetent syngeneic mice model (5 weeks old, strain: FVB WT). to establish intracerebellar MATH1-Prune1/ TP53-/- models, mice were anaesthetised with Ketamine/ Xylazine (87.5 mg/kg, 12.5 mg/kg, respectively). The mice were then placed in a stereotactic frame by hooking their incisors onto the frame hold. […] The mice were monitored daily for development of potential neurological deficits. For LEO-AA7.5(S)T in-vivo treatment, starting after 10 days from tumour implantation (i.e., once the tumours were established) the mice (grouped according to body weight values) were injected intraperitoneally with LEO-AA7.5(S)T at 6 mg/kg/day, or with water as the vehicle for the control group. mouse body weights were measured at the indicated time points. Mouse survival was closely monitored during the entire experimental period.

[2] = 60 and 120 mg/kg intraperitoneally, daily for 12 days

## COc1ccc(CNc2ncnc(N3CCC[C@H](CO)C3)n2)cc1.Cl [LEO-AA7.5(S)T, (S)-(1-(4-((4-methoxybenzyl)amino)-1,3,5-triazin-2-yl)piperidin-3-yl)methanol HCl salt]
D425-Med cells; 6 mg/kg/day plus 0.3 mg/kg/day Vincristine intraperitoneally for 18 days
  intracranial tumor growth, combinatorial treatment with Vincristine: significantly decreased
D425-Med cells; combinatorial treatment with Vincristine
  angiogenesis (IVISense Integrin Receptor 680 Fluorescent Probe): decreased levels of angiogenesis
Acute toxicity in vivo; 60mg or 120mg/kg/day intraperitoneally for 12 days
  liver, spleen and kidney weight, treated vs controls: no decrease
Acute toxicity in vivo; [2]
  haematological parameters (e.g. white blood cell count): no significant variations
  immediate toxicity effects: no immediate toxicity effects
  hepatotoxicity or nephrotoxicity (glutamate-pyruvate transaminase 1, creatinine blood levels, blood urea nitrogen): absence of drug-induced hepatotoxicity and renal failure
Acute toxicity in vivo; 60 and 120 mg/kg intraperitoneally, daily for 12 days, listed as (S)-(1-(4-((4-methoxybenzyl)amino)-1,3,5-triazin-2-yl)piperidin-3-yl)methanol HC
  hepatotoxicity or nephrotoxicity (glutamate-pyruvate transaminase 1, creatinine blood levels, blood urea nitrogen): no signs of hepatotoxicity or nephrotoxicity
[1]
  levels of inflammatory cytokines targeted by IMIDs drugs (qPCR): decreased levels
MATH1-Prune1/ TP53-/-; 6 mg/kg/day intraperitoneally
  toxic effects (body weight): no toxic effects
MATH1-Prune1/ TP53-/-; 6 mg/kg/day intraperitoneally from day 10 after implantation
  overall survival: improved overall survival
